Results on four sequences are retold here after patent US20070128217A1 (priority 2003, published 2007).

Experiment [1] deals with rabbit serum obtained by immunizing a rabbit with the SARS-CoV strain Frankfurt 1. Type of experiment: binding. Details: Binding of a rabbit serum to linear peptides / Binding of a rabbit serum to looped peptides / Rabbit serum linear peptides / Rabbit serum looped peptides / Binding of a rabbit serum to linear peptides of protein N of SARS-CoV Urbani (Rabbit serum linear peptides) / Binding of a rabbit serum to looped/cyclic peptides of protein N of SARS-CoV Urbani (Rabbit serum looped peptides): unit not given here.

In experiment [2] the test system is antibodies in sera from SARS patients (sera 1a, 1b, 2, 6, 37, 62, London, SARS-yellow, SARS-green). It counts as binding, human. Also on record: Binding of serum 6 to linear peptides of protein X1 of SARS-CoV Urbani / Binding of serum 37 to linear peptides of protein X1 of SARS-CoV Urbani / Binding of serum 6 to looped/cyclic peptide (PEPSCAN-ELISA) / Binding of serum 37 to looped/cyclic peptide (PEPSCAN-ELISA) / Binding of serum 37 to looped/cyclic peptides of protein X1 of SARS-CoV Urbani / Binding of serum 6 to linear peptides of protein X2 / Binding of serum 37 to linear peptides of protein X2 / Binding of serum 37 to looped/cyclic peptides of protein X2 of SARS-CoV Urbani / Binding of serum 6 to linear peptides of protein M of SARS-CoV Urbani / Binding of serum 37 to linear peptides of protein M of SARS-CoV Urbani / Binding of serum 6 to looped/cyclic peptides of protein M of SARS-CoV Urbani / Binding of serum 37 to looped/cyclic peptides of protein M of SARS-CoV Urbani / Binding of serum 6 to linear peptides of protein X3 of SARS-CoV Urbani / Binding of serum 37 to linear peptides of protein X3 of SARS-CoV Urbani / Binding of serum 37 to looped/cyclic peptides of protein X3 of SARS-CoV Urbani / Binding of serum 6 to linear peptides of protein X4 of SARS-CoV Urbani / Binding of serum 37 to linear peptides of protein X4 of SARS-CoV Urbani / Binding of serum 37 to looped/cyclic peptides of protein X4 of SARS-CoV Urbani / Binding of serum 6 to linear peptides of protein X5 of SARS-CoV Urbani / Binding of serum 37 to linear peptides of protein X5 of SARS-CoV Urbani / Binding of serum 37 to looped/cyclic peptides of protein X5 of SARS-CoV Urbani / Binding of serum 6 to linear peptides of protein N of SARS-CoV Urbani / Binding of serum 37 to linear peptides of protein N of SARS-CoV Urbani / Binding of serum 6 to linear peptide (PEPSCAN-ELISA) / Binding of serum 1a to looped/cyclic peptides of protein N of SARS-CoV Urbani / Binding of serum 1b to looped/cyclic peptides of protein N of SARS-CoV Urbani / Binding of serum 2 to looped/cyclic peptides of protein N of SARS-CoV Urbani / Binding of serum 6 to looped/cyclic peptides of protein N of SARS-CoV Urbani / Binding of serum 37 to looped/cyclic peptides of protein N of SARS-CoV Urbani / Binding of serum 62 to looped/cyclic peptides of protein N of SARS-CoV Urbani / Binding of serum London to looped/cyclic peptides of protein N of SARS-CoV Urbani / Binding of serum SARS-green to looped/cyclic peptides of protein N of SARS-CoV Urbani: unit not given here.

In experiment [3] the test system is control sera (pooled serum of ten healthy LUMC hospital workers; commercial negative donor pooled serum from the Dutch bloodbank). It counts as binding, human. Details: Binding of Control serum LUMC to linear peptides / Binding of Control serum Blood-bank to linear peptides / Binding of Control serum LUMC to looped peptides / Binding of Control Serum Blood-Bank to Looped peptides / Binding of Control serum LUMC to linear peptides of the protein M of SARS-CoV Urbani / Binding of Control serum Blood-bank to linear peptides of the protein M of SARS-CoV Urbani / Binding of Control serum LUMC to looped peptides of the protein M of SARS-CoV Urbani / Binding of Control Serum Blood-Bank to Looped peptides of the protein M of SARS-CoV Urbani: unit not given here.

In the case of CADGTRHTYQLRARS, the “Recognition of the peptide by the rabbit serum” value in experiment [1] is on record as “recognized”. Also, in experiment [2], the “Binding of serum 1a to linear peptides of protein X4 of SARS-CoV Urbani” value amounted to 0.6, the “Binding of serum 1a to looped/cyclic peptides of protein X4 of SARS-CoV Urbani” value turned out to be 0.7, the “Binding of serum 1b to linear peptides of protein X4 of SARS-CoV Urbani” value was found to be 0.5 and the “Binding of serum 1b to looped/cyclic peptides of protein X4 of SARS-CoV Urbani” value was 0.4. In experiment [2], the “Binding of serum 2 to linear peptides of protein X4 of SARS-CoV Urbani” value was determined as 0.5, the “Binding of serum 2 to looped/cyclic peptides of protein X4 of SARS-CoV Urbani” value was 0.8, the “Binding of serum 6 to linear peptides of protein X4 of SARS-CoV Urbani” value worked out at 0.6 and the “Binding of serum 6 to looped/cyclic peptides of protein X4 of SARS-CoV Urbani” value was found to be 0.6. In experiment [2], the “Binding of serum 37 to linear peptides of protein X4 of SARS-CoV Urbani” value is recorded as 0.7, the “Binding of serum 37 to looped/cyclic peptides of protein X4 of SARS-CoV Urbani” value is reported as 0.7, the “Binding of serum 62 to linear peptides of protein X4 of SARS-CoV Urbani” value came out at 0.7 and the “Binding of serum 62 to looped/cyclic peptides of protein X4 of SARS-CoV Urbani” value was 0.6. Further, in experiment [2], the “Binding of serum London to linear peptides of protein X4 of SARS-CoV Urbani” value came to 0.8, the “Binding of serum London to looped/cyclic peptides of protein X4 of SARS-CoV Urbani” value is 0.3, the “Binding of serum SARS-green to linear peptides of protein X4 of SARS-CoV Urbani” value stood at 0.6 and the “Binding of serum SARS-green to looped/cyclic peptides of protein X4 of SARS-CoV Urbani” value was 0.0. Further, in experiment [2], the “Binding of serum SARS-yellow to linear peptides of protein X4 of SARS-CoV Urbani” value was 0.7 and the “Binding of serum SARS-yellow to looped/cyclic peptides of protein X4 of SARS-CoV Urbani” value worked out at 0.6. Besides, in experiment [3], the “Binding of Control Serum Blood-Bank to Looped peptides” value was 0.5, the “Binding of Control serum Blood-bank to linear peptides” value is 0.7, the “Binding of Control serum LUMC to linear peptides” value is reported as 0.5 and the “Binding of Control serum LUMC to looped peptides” value is recorded as 0.6.

Consider CDIKDLPKEITVATS, for which, in experiment [1], the “Rabbit serum linear peptides” value was 0.4 and the “Rabbit serum looped peptides” value was 0.6. In addition, in experiment [2], the “Binding of serum 1a to linear peptides of protein M of SARS-CoV Urbani” value is listed as 0.6, the “Binding of serum 1a to looped/cyclic peptides of protein M of SARS-CoV Urbani” value came out at 0.6, the “Binding of serum 1b to linear peptides of protein M of SARS-CoV Urbani” value is reported as 0.3 and the “Binding of serum 1b to looped/cyclic peptides of protein M of SARS-CoV Urbani” value was determined as 0.3. Moreover, in experiment [2], the “Binding of serum 2 to linear peptides of protein M of SARS-CoV Urbani” value is 0.3, the “Binding of serum 2 to looped/cyclic peptides of protein M of SARS-CoV Urbani” value came out at 0.6, the “Binding of serum 6 to linear peptides of protein M of SARS-CoV Urbani” value worked out at 0.3 and the “Binding of serum 6 to looped/cyclic peptides of protein M of SARS-CoV Urbani” value was 0.5. For the same sequence, in experiment [2], the “Binding of serum 37 to linear peptides of protein M of SARS-CoV Urbani” value is reported as 0.5, the “Binding of serum 37 to looped/cyclic peptides of protein M of SARS-CoV Urbani” value came to 0.6, the “Binding of serum 62 to linear peptides of protein M of SARS-CoV Urbani” value was found to be 0.7 and the “Binding of serum 62 to looped/cyclic peptides of protein M of SARS-CoV Urbani” value was found to be 0.6. For the same sequence, in experiment [2], the “Binding of serum London to linear peptides of protein M of SARS-CoV Urbani” value is 0.3, the “Binding of serum London to looped/cyclic peptides of protein M of SARS-CoV Urbani” value worked out at 0.2, the “Binding of serum SARS-green to linear peptides of protein M of SARS-CoV Urbani” value is reported as 0.2 and the “Binding of serum SARS-green to looped/cyclic peptides of protein M of SARS-CoV Urbani” value turned out to be 0.4. In experiment [2], the “Binding of serum SARS-yellow to linear peptides of protein M of SARS-CoV Urbani” value was found to be 0.0 and the “Binding of serum SARS-yellow to looped/cyclic peptides of protein M of SARS-CoV Urbani” value was found to be 0.6. Moreover, in experiment [3], the “Binding of Control Serum Blood-Bank to Looped peptides of the protein M of SARS-CoV Urbani” value is listed as 0.6, the “Binding of Control serum Blood-bank to linear peptides of the protein M of SARS-CoV Urbani” value is reported as 0.4, the “Binding of Control serum LUMC to linear peptides of the protein M of SARS-CoV Urbani” value came out at 0.2 and the “Binding of Control serum LUMC to looped peptides of the protein M of SARS-CoV Urbani” value came to 0.7.

Take CFVLAAVYRINWVTG: in experiment [1], the “Rabbit serum linear peptides” value was 0.2 and the “Rabbit serum looped peptides” value came to 0.1. In addition, in experiment [2], the “Binding of serum 1a to linear peptides of protein M of SARS-CoV Urbani” value stood at 0.8, the “Binding of serum 1a to looped/cyclic peptides of protein M of SARS-CoV Urbani” value was determined as 0.6, the “Binding of serum 1b to linear peptides of protein M of SARS-CoV Urbani” value was 0.6 and the “Binding of serum 1b to looped/cyclic peptides of protein M of SARS-CoV Urbani” value was 0.6. In addition, in experiment [2], the “Binding of serum 2 to linear peptides of protein M of SARS-CoV Urbani” value stood at 0.6, the “Binding of serum 2 to looped/cyclic peptides of protein M of SARS-CoV Urbani” value was 0.5, the “Binding of serum 6 to linear peptides of protein M of SARS-CoV Urbani” value is listed as 0.6 and the “Binding of serum 6 to looped/cyclic peptides of protein M of SARS-CoV Urbani” value is listed as 0.8. Moreover, in experiment [2], the “Binding of serum 37 to linear peptides of protein M of SARS-CoV Urbani” value is on record as 0.4, the “Binding of serum 37 to looped/cyclic peptides of protein M of SARS-CoV Urbani” value was 0.6, the “Binding of serum 62 to linear peptides of protein M of SARS-CoV Urbani” value was found to be 0.4 and the “Binding of serum 62 to looped/cyclic peptides of protein M of SARS-CoV Urbani” value is 0.7. In addition, in experiment [2], the “Binding of serum London to linear peptides of protein M of SARS-CoV Urbani” value is 0.4, the “Binding of serum London to looped/cyclic peptides of protein M of SARS-CoV Urbani” value was 0.2, the “Binding of serum SARS-green to linear peptides of protein M of SARS-CoV Urbani” value came out at 0.5 and the “Binding of serum SARS-green to looped/cyclic peptides of protein M of SARS-CoV Urbani” value is reported as 0.3. Also, in experiment [2], the “Binding of serum SARS-yellow to linear peptides of protein M of SARS-CoV Urbani” value was found to be 0.2 and the “Binding of serum SARS-yellow to looped/cyclic peptides of protein M of SARS-CoV Urbani” value was 0.4. In experiment [3], the “Binding of Control Serum Blood-Bank to Looped peptides of the protein M of SARS-CoV Urbani” value amounted to 0.6, the “Binding of Control serum Blood-bank to linear peptides of the protein M of SARS-CoV Urbani” value is listed as 0.7, the “Binding of Control serum LUMC to linear peptides of the protein M of SARS-CoV Urbani” value was found to be 0.6 and the “Binding of Control serum LUMC to looped peptides of the protein M of SARS-CoV Urbani” value is listed as 0.8.

In the case of CIPYNSVTDTIVVTE, in experiment [1], the “Binding of a rabbit serum to linear peptides” value came out at 0.1 and the “Binding of a rabbit serum to looped peptides” value is given as 0.4. In experiment [2], the “Binding of serum 1a to linear peptides of protein X1 of SARS-CoV Urbani” value worked out at 0.7, the “Binding of serum 1b to linear peptides of protein X1 of SARS-CoV Urbani” value was determined as 0.6, the “Binding of serum 1b to looped/cyclic peptides of protein X1 of SARS-CoV Urbani” value came out at 0.4 and the “Binding of serum 2 to linear peptides of protein X1 of SARS-CoV Urbani” value is listed as 0.5. For the same sequence, in experiment [2], the “Binding of serum 2 to looped/cyclic peptides of protein X1 of SARS-CoV Urbani” value is given as 0.5, the “Binding of serum 6 to linear peptides of protein X1 of SARS-CoV Urbani” value came out at 0.5, the “Binding of serum 6 to looped/cyclic peptides of protein X1 of SARS-CoV Urbani” value is given as 0.2 and the “Binding of serum 37 to linear peptides of protein X1 of SARS-CoV Urbani” value was 0.7. In experiment [2], the “Binding of serum 37 to looped/cyclic peptides of protein X1 of SARS-CoV Urbani” value worked out at 0.6, the “Binding of serum 62 to linear peptides of protein X1 of SARS-CoV Urbani” value came to 0.6, the “Binding of serum 62 to looped/cyclic peptides of protein X1 of SARS-CoV Urbani” value came to 0.5 and the “Binding of serum London to linear peptides of protein X1 of SARS-CoV Urbani” value stood at 0.3. In experiment [2], the “Binding of serum London to looped/cyclic peptides of protein X1 of SARS-CoV Urbani” value worked out at 0.2, the “Binding of serum SARS-green to linear peptides of protein X1 of SARS-CoV Urbani” value is on record as 0.3, the “Binding of serum SARS-green to looped/cyclic peptides of protein X1 of SARS-CoV Urbani” value stood at 0.3 and the “Binding of serum SARS-yellow to linear peptides of protein X1 of SARS-CoV Urbani” value came out at 0.5. In addition, in experiment [2], the “Binding of serum SARS-yellow to looped/cyclic peptides of protein X1 of SARS-CoV Urbani” value came to 0.4. For the same sequence, in experiment [3], the “Binding of Control Serum Blood-Bank to Looped peptides” value was 0.6, the “Binding of Control serum Blood-bank to linear peptides” value was found to be 0.5, the “Binding of Control serum LUMC to linear peptides” value came to 0.6 and the “Binding of Control serum LUMC to looped peptides” value is 0.5.
